From paper PMC7413254 (Nature Communications, 2020)
Where two headings read alike, the source gives them in different places.

Columns and labels:
[1] = biological target: T1, PfNT1 (Plasmodium falciparum, UniProt Q8IDM6); experiment: [3H]VF-6 transport (efflux) from injected Xenopus oocytes; assay type: cell-based; conditions: trans-inhibition, treatment 45 mM
T1 construct: expressed in transfected cells; host or cells: Xenopus laevis oocytes (stage V-VI), cRNA-injected

[2] = tested on: PfCRT^Dd2; experiment: cell-based; assay type: cell-based, Plasmodium falciparum; conditions: for PfCRT-mediated [3H]CQ transport, trans-stimulation (% PfCRTDd2 control): PfCRTDd2 oocytes, normalised to oocyte type control; for [3H]CQ transport (% PfCRTDd2 control), trans-stimulation, PfCRTDd2: PfCRT-mediated component (background subtracted), mean ± SEM, SEM
Summary of the method: (§1)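 Oocytes (ten per treatment, ≥4 independent frogs/days) were preloaded by injecting VF-6 in 25 nL ND96 at pH 5.0, 5.5, 6.0 or 7.0, or Na^+-free choline buffer, then uptake run 1.5 h, 27.5 °C, ND96 pH 5.5 by default. Internal concentrations assumed ~400 nL oocyte volume.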

[3] = tested on: PfCRT^Ecu1110; experiment: cell-based; assay type: cell-based, Plasmodium falciparum; conditions: for PfCRT-mediated [3H]CQ transport, trans-stimulation (% PfCRTEcu1110 control): PfCRTEcu1110 oocytes, normalised to oocyte type control; for [3H]CQ transport (% PfCRTDd2 control), trans-stimulation, PfCRTEcu1110: PfCRT-mediated component (background subtracted), sheet title says normalised to PfCRTDd2 control, mean ± SEM, SEM
Summary of the method: as §1

[4] = tested on: C4^Dd2 parasites; experiment: P. falciparum proliferation assay; assay type: cell-based, Plasmodium falciparum
Method: (§2) Parasite proliferation was measured in 96-well plates using a fluorescent DNA-intercalating dye[68],[69]. Synchronous ring-stage parasite cultures (~1% haematocrit and 1% parasitaemia) were incubated with different concentrations of the test compound for 72 h at 37 °C and under reduced O2 conditions. The assay was terminated by freezing and thawing the samples, after which 100 μL of SYBR Safe DNA Gel Stain (Molecular Probes; 0.2 μL/mL) in a lysis buffer (20 mM Tris-HCl, 5 mM EDTA, 0.008% (w/v) saponin and 0.08% (v/v) Triton X-100; pH 7.5) was added to each well. The fluorescence from each well was measured using a Tecan Infinite M1000 PRO microplate reader (excitation wavelength 490 nm; emission wavelength 520 nm). The fluorescence values for the wells containing the highest concentration of the compound were averaged and this value was then subtracted from each of the well values obtained for that 96-well plate. The level of parasite proliferation in the presence of each compound concentration was expressed as a percentage of the proliferation measured in the absence of the compound. The IC50s were determined in SigmaPlot Windows Version 11.0 by a least-squares fit of the equation y = a/[1 + ([compound]/IC50)^c] to the data, where y is the percent parasite proliferation, a is the maximum change in the percent parasite proliferation, and c is a fitted constant. In all cases, five independent experiments were performed (on different days), and within each experiment measurements were averaged from three replicates.

[5] = tested on: C6^7G8 parasites; experiment: P. falciparum proliferation assay; assay type: cell-based, Plasmodium falciparum
Method: as §2

[6] = tested on: Dd2 strain; experiment: P. falciparum proliferation assay; assay type: cell-based, Plasmodium falciparum
Method: as §2

[7] = tested on: 3D7 strain; experiment: P. falciparum proliferation assay; assay type: cell-based, Plasmodium falciparum
Method: as §2

[8] = tested on: 7G8 strain; experiment: P. falciparum proliferation assay; assay type: cell-based, Plasmodium falciparum
Method: as §2

[9] = tested on: C2^GC03 parasites; experiment: P. falciparum proliferation assay; assay type: cell-based; conditions: Plasmodium falciparum
Method: as §2

[10] = biological target: T2, PfCRT^Dd2 in C4^Dd2 parasites (Plasmodium falciparum, UniProt Q8IBZ9, A220S/I356T/K76T/M74I/N326S/N75E/Q271E/R371I); experiment: P. falciparum H+-efflux assay (rate of DV alkalinisation after concanamycin A); assay type: cell-based; conditions: C4Dd2; for Effect on rate of DV alkalinisation / H+ leak (in words): test solute 10 μM
T2 construct: PfCRT also functions as a peptide transporter within its native environment of the DV membrane; expressed in transfected cells; host or cells: P. falciparum pfcrt transfectant line C4^Dd2 (saponin-isolated trophozoites)
T2 sequence (Q8IBZ9 1-424 M74I/N75E/K76T/A220S/Q271E/N326S/I356T/R371I): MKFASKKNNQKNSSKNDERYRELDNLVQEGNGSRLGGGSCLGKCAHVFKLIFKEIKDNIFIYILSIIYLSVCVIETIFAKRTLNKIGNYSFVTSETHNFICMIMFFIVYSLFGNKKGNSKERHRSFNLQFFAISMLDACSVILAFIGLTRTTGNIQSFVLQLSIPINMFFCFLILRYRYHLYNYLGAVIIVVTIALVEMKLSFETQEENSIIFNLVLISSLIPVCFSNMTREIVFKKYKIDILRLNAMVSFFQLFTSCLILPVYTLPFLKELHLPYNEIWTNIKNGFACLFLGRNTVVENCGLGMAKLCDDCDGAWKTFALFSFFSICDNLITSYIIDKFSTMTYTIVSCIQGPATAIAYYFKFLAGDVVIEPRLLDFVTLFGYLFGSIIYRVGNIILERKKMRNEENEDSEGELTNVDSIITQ

[11] = [test solute]i = 5 mM (intracellular)
[12] = [test solute]i = 45 mM (intracellular; 30 mM for some solutes due to solubility)
[13] = [test solute]i = 5 mM (injected)
[14] = [test solute]i = 45 mM (30 mM for some solutes due to solubility)
[15] = Plasmodium falciparum, DD2, 72 h, read-out: IC50 (nM), parasite proliferation, + 1 μM VP, SEM
[16] = Plasmodium falciparum, 72 h, read-out: IC50 (nM), parasite proliferation, + 1 μM VP, SEM

T1 sequence (Q8IDM6 whole entry): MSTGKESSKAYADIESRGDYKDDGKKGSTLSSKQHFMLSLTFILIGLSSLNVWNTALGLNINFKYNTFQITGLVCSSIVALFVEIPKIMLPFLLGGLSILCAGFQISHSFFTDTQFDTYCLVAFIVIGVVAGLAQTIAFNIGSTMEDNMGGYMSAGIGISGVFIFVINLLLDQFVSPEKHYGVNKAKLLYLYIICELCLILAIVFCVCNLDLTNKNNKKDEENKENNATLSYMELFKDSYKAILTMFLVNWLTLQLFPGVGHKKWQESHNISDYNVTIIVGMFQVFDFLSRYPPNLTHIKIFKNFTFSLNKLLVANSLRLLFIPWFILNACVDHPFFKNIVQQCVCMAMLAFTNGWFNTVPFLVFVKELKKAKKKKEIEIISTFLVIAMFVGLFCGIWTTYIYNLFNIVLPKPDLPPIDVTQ

For VDPVN [VF-6-derived peptide], the “[3H]VF-6 transport, PfNT1 (% PfCRT3D7 control)” value ([1]; Experiment 1) was 3.27 % PfCRT3D7 control, the “[3H]VF-6 transport, PfNT1 (% PfCRT3D7 control)” value ([1]; Experiment 2) was 3.32 % PfCRT3D7 control and the “[3H]VF-6 transport, PfNT1 (% PfCRT3D7 control)” value ([1]; Experiment 3) was 3.39 % PfCRT3D7 control. The “[3H]VF-6 transport, PfNT1 (% PfCRT3D7 control)” value ([1]; Experiment 4) was 3.68 % PfCRT3D7 control and the “[3H]VF-6 transport, PfNT1 (% PfCRT3D7 control)” value ([1]; Experiment 5) was 3.32 % PfCRT3D7 control.

`CSCC[C@H](N)C(=O)O` [L-methionine] was tested, and the “PfCRT-mediated [3H]CQ transport, trans-stimulation (% PfCRTDd2 control)” value [2, 11] was 98 ± 4.1 % PfCRTDd2 control, the “PfCRT-mediated [3H]CQ transport, trans-stimulation (% PfCRTDd2 control)” value [2, 12] was 97 ± 3.5 % PfCRTDd2 control and the “[3H]CQ transport (% PfCRTDd2 control), trans-stimulation, PfCRTDd2” value [2, 13] was 98 ± 4.1 % PfCRTDd2 control. For the same molecule, the “[3H]CQ transport (% PfCRTDd2 control), trans-stimulation, PfCRTDd2” value [2, 14] was 97 ± 3.5 % PfCRTDd2 control, the “PfCRT-mediated [3H]CQ transport, trans-stimulation (% PfCRTEcu1110 control)” value [3, 11] was 96 ± 1.4 % PfCRTEcu1110 control and the “PfCRT-mediated [3H]CQ transport, trans-stimulation (% PfCRTEcu1110 control)” value [3, 12] was 98 ± 4.6 % PfCRTEcu1110 control. The “[3H]CQ transport (% PfCRTDd2 control), trans-stimulation, PfCRTEcu1110” value [3, 13] was 32 ± 1.1 % PfCRTEcu1110 control and the “[3H]CQ transport (% PfCRTDd2 control), trans-stimulation, PfCRTEcu1110” value [3, 14] was 33 ± 1.3 % PfCRTEcu1110 control.

`CCN(CC)CCCC(C)Nc1ccnc2cc(Cl)ccc12` (stereo not shown) [CQ, chloroquine, reference compound] was tested, and the IC50 [4, 15] was 26 ± 0.1 nM, the IC50 [5, 16] was 25 ± 0.2 nM and the IC50 ([5]; Plasmodium falciparum, C67G8, 72 h, 37 °C, SYBR Safe, mean ± SEM, n = 5, read-out: IC50 (nM), parasite proliferation, Control) was 87 ± 2.1 nM. It also gave an IC50 [6, 15] of 25 ± 1 nM, an IC50 ([7]; Plasmodium falciparum, 3D7, 72 h, 37 °C, SYBR Safe, mean ± SEM, n = 5, read-out: IC50 (nM), parasite proliferation, Control) of 25 ± 1.1 nM and an IC50 ([7]; Plasmodium falciparum, 3D7, 72 h, read-out: IC50 (nM), parasite proliferation, + 1 μM VP, SEM) of 24 ± 0.9 nM. The IC50 [8, 16] was 28 ± 1.6 nM, the IC50 ([8]; Plasmodium falciparum, 72 h, read-out: IC50 (nM), parasite proliferation, Control, SEM) was 94 ± 4.4 nM and the IC50 ([9]; 72 h, read-out: IC50 (nM), parasite proliferation, + 1 μM VP, SEM) was 26 ± 1.3 nM. The IC50 ([9]; C2GC03, 72 h, 37 °C, SYBR Safe, mean ± SEM, n = 5, read-out: IC50 (nM), parasite proliferation, Control) was 27 ± 1.6 nM and the “Effect on rate of DV alkalinisation / H+ leak (in words)” value [10] was “increase”.

In the case of DPVN [VF-6-derived peptide], the “[3H]VF-6 transport, PfNT1 (% PfCRT3D7 control)” value ([1]; Experiment 1) is reported as 3.26 % PfCRT3D7 control, the “[3H]VF-6 transport, PfNT1 (% PfCRT3D7 control)” value ([1]; Experiment 2) is reported as 3.27 % PfCRT3D7 control and the “[3H]VF-6 transport, PfNT1 (% PfCRT3D7 control)” value ([1]; Experiment 3) is reported as 3.74 % PfCRT3D7 control. For the same molecule, the “[3H]VF-6 transport, PfNT1 (% PfCRT3D7 control)” value ([1]; Experiment 4) was 3.42 % PfCRT3D7 control and the “[3H]VF-6 transport, PfNT1 (% PfCRT3D7 control)” value ([1]; Experiment 5) was 3.57 % PfCRT3D7 control.

With `CC(C)(C)NC(=O)[C@@H]1C[C@@H]2CCCC[C@@H]2CN1C[C@@H](O)[C@H](Cc1ccccc1)NC(=O)[C@H](CC(N)=O)NC(=O)c1ccc2ccccc2n1` [Saquinavir, saquinavir, reference compound] the IC50 ([4]; Plasmodium falciparum, DD2, C4Dd2, 72 h, 37 °C, SYBR Safe, mean ± SEM, n = 5, read-out: IC50 (μM), parasite proliferation, Control) was 3500 ± 500 nM, the IC50 ([4]; read-out: IC50 (μM), parasite proliferation, + 1 μM VP, C4Dd2, + 1 μM verapamil, 72 h, mean ± SEM, n = 5) was 1900 ± 100 nM and the IC50 ([5]; Plasmodium falciparum, C67G8, 72 h, 37 °C, SYBR Safe, mean ± SEM, n = 5, read-out: IC50 (μM), parasite proliferation, Control) was 4200 ± 400 nM. It also gave an IC50 ([5]; read-out: IC50 (μM), parasite proliferation, + 1 μM VP, C67G8, + 1 μM verapamil, 72 h, mean ± SEM, n = 5) of 2300 ± 300 nM, an IC50 ([6]; Plasmodium falciparum, DD2, 72 h, read-out: IC50 (μM), parasite proliferation, Control, SEM) of 3300 ± 200 nM and an IC50 ([6]; read-out: IC50 (μM), parasite proliferation, + 1 μM VP, Dd2, + 1 μM verapamil, 72 h, mean ± SEM, n = 5) of 2100 ± 300 nM. It also gave an IC50 ([7]; Plasmodium falciparum, 3D7, 72 h, 37 °C, SYBR Safe, mean ± SEM, n = 5, read-out: IC50 (μM), parasite proliferation, Control) of 7400 ± 300 nM, an IC50 ([7]; read-out: IC50 (μM), parasite proliferation, + 1 μM VP, SEM) of 5900 ± 600 nM and an IC50 ([8]; Plasmodium falciparum, 72 h, read-out: IC50 (μM), parasite proliferation, Control, SEM) of 4700 ± 100 nM. The IC50 ([8]; read-out: IC50 (μM), parasite proliferation, + 1 μM VP, 7G8, + 1 μM verapamil, 72 h, mean ± SEM, n = 5) was 2200 ± 100 nM, the IC50 ([9]; 72 h, read-out: IC50 (μM), parasite proliferation, + 1 μM VP, SEM) was 5100 ± 200 nM and the IC50 ([9]; C2GC03, 72 h, 37 °C, SYBR Safe, mean ± SEM, n = 5, read-out: IC50 (μM), parasite proliferation, Control) was 6800 ± 400 nM. The “Maximum rate of peptide mimic-induced DV alkalinization” value ([10]; mean ± SEM, n = 5, SEM) was 0.011 ±0.003 fluorescence ratio/s and the “Effect on rate of DV alkalinisation / H+ leak (in words)” value [10] was “increased the rate of DV alkalinisation”.
